Results reported in patent publication US4016254A, “Pharmaceutical formulations” (Beecham Group Limited, priority 1972, dated 1977).

Experiments:
Assay type in all cases: physicochemical
[1] = Flow properties: angle of repose
[2] = Bulk densities, Examples 1-14
[3] = Potency, Examples 15-56 (determined in conventional manner)
Procedure: The moisture contents of these powders were determined by the Karl Fischer method. The potency of the product was determined in conventional manner.

For `CC1(C)S[C@@H]2[C@H](NC(=O)[C@H](N)c3ccccc3)C(=O)N2[C@H]1C(=O)O` [ampicillin trihydrate raw material, ampicillin trihydrate], the “Angle of repose of raw material” value [1] was 64 °, the “Bulk Density” value [2] was 0.67 and the “Potency of ampicillin trihydrate raw materials” value (“Potency” below) ([3]; raw material of Examples 15-29 and 41-48) was 83%. For the same compound, the “Potency” value ([3]; raw material of Examples 30-40) was 84% and the “Potency” value ([3]; raw material of Examples 49-56) was 86%.
